Experimental data reported in patent US8796273B2, “Compound for the treatment of enteroviruses” (priority 2010, dated 2014).

Key:
[1] = tested on: Poliovirus 1 (PV1); test: microbe, parasite or virus in culture; format: cell-based, Human enterovirus C; conditions: Enterovirus C, read-out: EC50, replication of Poliovirus 1 (PV1)
[2] = tested on: Enterovirus 71 (EV71); test: microbe, parasite or virus in culture; format: cell-based, Human enterovirus A; conditions: Enterovirus A, EV71, read-out: EC50, replication of Enterovirus 71 (EV71)

Row | Compound | EC50 [1] [nM] | EC50 [2] [nM]
1 | CC(C)S(=O)(=O)n1c(N)nc2ccc(/C(=N/O)c3ccccc3)cc21 [Enviroxime] | 790 ± 130 | 450 ± 120
2 | CCOC(=O)/C=C/[C@H](C[C@@H]1CCNC1=O)NC(=O)[C@@H](CC(=O)[C@@H](NC(=O)c1cc(C)on1)C(C)C)Cc1ccc(F)cc1 [Rupintrivir] | 4500 ± 360 | 900 ± 70
3 | COc1ccc(OCc2ccc(COc3c(Cl)cccc3Cl)cc2)c(Cl)c1 [Compound V-073, V-073] | 26 ± 23 | > 300000
4 | Cc1cc(CCCOc2c(C)cc(-c3noc(C(F)(F)F)n3)cc2C)on1 [Pleconaril] | > 300000 | > 300000
